Results reported in patent US20080025970A1, “Treatment of atherosclerosis” (priority 2004, published 2008).

Assays:
Type in all cases: cell-based
[1] = system: adhesion of highly activated U937 cells to HSP60; test: Adhesion of highly activated U937 cells to HSP60 coated wells; settings: at the lowest concentration tested; FIG. 9
[2] = system: adhesion of monocytes to tissue sections of atherosclerotic plaque; test: Adhesion of monocytes to tissue sections of atherosclerotic plaque
[3] = system: adhesion of highly activated U937 cells to oxidised LDL; test: Adhesion of highly activated U937 cells (PMA plus vitamin A and vitamin D) to oxidised LDL; settings: raft-disrupting agents; all concentrations tested; FIG. 5
Protocol: Plastic wells were coated with oxidised LDL, or fibronectin 10 μg/ml for 16 hrs at 4° C., and washed. Monocytes were isolated in an unactivated state from one unit of buffy coat cells by the method of Tsouknos et al^26, labelled with carboxyfluorescein for 30 mins, and washed. Inhibitors and control Ig UPC10 were added to the plates in 50 μL, and then 50 μL of cells at a final concentration of 3×10^6/ml in the assay. The plates were incubated at 37° C. for 1 hr. Non-adherent cells were removed by a standardised washing procedure, and after addition of cell suspension to 3 wells as the 100% control, the plates were measured in an automatic fluorescent spectrophotometer.
U937 cells were stimulated with PMA 10 ng/ml, plus vitamin A (1 ug/ml) and vitamin D (10^-7 M) for 16 hours, and then the assay was performed as in Example 3.
U937 cells were stimulated as in Example 5, and the experiment performed as in Example 3. The results are shown in FIG. 6, with the legend as in the previous figures. CD14, CD18, TLR-4 antibodies were all murine Igs. MOPC21:—control murine IgG1, UPC10:—control murine IgG2a.

Molecule: C[S+](C)[O-] [DMSO, Dimethylsulphoxide]
- inhibition of binding of highly activated U937 cells to HSP60 [1]: highly inhibitory
- inhibition of adhesion of monocytes to tissue sections of atherosclerotic plaque [2]: inhibits adhesion

Molecule: C[C@@H]1[C@H](O)[C@@H](C)/C=C/C=C/CC/C=C/C=C/C=C/C=C/C(O[C@H]2O[C@H](C)[C@@H](O)[C@H](N)[C@@H]2O)CC2O[C@](O)(CC(O)C(O)CCC(O)CC(O)CC(O)CC(=O)O[C@H]1C)CC(O)C2C(=O)O (stereo partly shown) [nystatin]
- inhibition of activated U937 cell adhesion to oxidised LDL [3]: near-total inhibition

Molecule: methyl cyclodextrin
- inhibition of activated U937 cell adhesion to oxidised LDL [3]: near-total inhibition
